Measurements reported in patent US20050090563A1, “Method and compositions for inhibiting the scent tracking ability of mosquitoes and biting midges” (Bedoukian Research, Inc., priority 2003, published 2005).

Tested on: Aedes aegypti mosquitoes
Assay: Field test of mosquito landings on human subjects near candles containing the test substance
Assay type: in vivo
Details: for Four Day Totals of Mosquito Landings On Subjects: field test, Connecticut, August 2003, candles at four corners of 7 ft x 7 ft squares, 18 inches above ground, four human subjects, landings counted on arms, legs and torso, control without substance 152
Protocol: In a test of the inhibiting ability of the (S)-(+)-linalool chiral isomer compound of this invention, the following field test was conducted. The study was conducted in August 2003 on a site in Connecticut. Candles containing the test compound or no compound were placed 18 inches above the ground at the four corners of 7 ft×7 ft squares, with the squares being placed 50 ft apart. Four subjects (persons) were employed in the tests. On a given day, the subjects were rotated through all four positions of a square. Each day, treatments rotated to the next position, so that each treatment was tested at each site. The landing of mosquitoes on the subject were counted. Landing counts were taken from the arms, legs and torso of a test subject.

| SMILES | Four Day Totals of Mosquito Landings On Subjects | Mosquito landings relative to linalool (same candle field test, four day totals) [%] |
| --- | --- | --- |
| C=CC(C)(O)CCC=C(C)C (stereo not drawn) [Linalool: 85% (+), 15% (−), Linalool] | 42 | 73.5 |
| C=CC(C)(O)CCC=C(C)C (stereo not drawn) [Linalool: 35% (+), 65% (−), Linalool, reference compound] | 82 | – |
